The source of these data is US20260042759A1, “INHIBITOR CONTAINING BICYCLIC DERIVATIVE, PREPARATION METHOD THEREFOR AND USE THEREOF” (SHANGHAI HANSOH BIOMEDICAL CO., LTD., priority 2019, published 2026).

One data set deals with T1, RET (Homo sapiens, UniProt P07949).
T1 construct: purchased Carna 08-159
Description: HTRF kinase assay, RET wild-type. The conditions noted are these: ATP at Km. Type of data set: biochemical. The text has this: • RET enzyme was purchased from Carna Company, and the article number was 08-159; • RET M918T enzyme was purchased from Carna Company, and the article number was 08-508; • KIF5B-RET was purchased from SignalChem Company, the article number was R02-19FG-05; • CCDC6-RET was purchased from SignalChem Company, the article number was R02-19BG-05; • RET V804M enzyme was purchased from Thermofisher Company, and the article number was PV6223; • RET V804L enzyme was purchased from Thermofisher Company, and the article number was PV4397; • HTRF KinEASE-TK kit was purchased from Cisbio Company, and the article number was 62TK0PEC; • ATP was purchased from Thermofisher Company, and the article number was PV3227; • 384-well plate was purchased from PerkinElmer Company, and the article number was 6007290.
In this experiment, the homogeneous time-resolved fluorescence (HTRF) method was used for the detection of compounds on RET kinase activity.
For orientation: In TR-FRET formats the signal depends on donor and acceptor labels being close together.

Another data set concerns the target T2, KDR kinase (Homo sapiens, UniProt P35968).
T2 construct: purchased Carna 08-191
Put plainly: HTRF kinase assay, KDR. Particulars: for IC50: HTRF, ATP at Km; for Ratio (KDR/RET): KDR IC50 / RET IC50. Type of data set: biochemical. The text has this: • KDR kinase was purchased from Carna Company, and the article number was 08-191; • HTRF KinEASE-TK kit was purchased from Cisbio Company, and the article number was 62TK0PEC; • ATP was purchased from Thermofisher Company, and the article number was PV3227; • 384-well plate was purchased from PerkinElmer Company, and the article number was 6007290.
In this experiment, the homogeneous time-resolved fluorescence (HTRF) method was used for the detection of compounds on KDR kinase activity.

Data set [1] concerns phosphorylation of ERK, a downstream signal factor of TT cells. Description: ERK phosphorylation in TT cells (Western Blot). Format: cell-based, human. As for the experimental part: In this experiment, the inhibitory effect of compounds on the phosphorylation level of ERK, a downstream signaling factor in TT cells, was measured by Western Blot method. When TT cells were cultured to the appropriate fusion degree, the cells were collected and adjusted to a suitable cell concentration using complete medium, the cell suspension was spread in a 24-well plate, 1 mL per well, and placed in a 37° C., 5% CO2 incubator overnight, and compound dilutions of different concentrations (3.7 nM, 11.1 nM, 33.3 nM, 100 nM, 300 nM) were added at 37° C. and acted for 2 hours; the cell supernatant was aspirated, washed one time with PBS, and the proteins were collected with lysate; after protein denaturation, Western blot experiments were performed: performing protein electrophoresis at 120V for approximately 75 minutes, followed by 45 minutes of transfer to PVDF membranes at 10V with a semi-dry transfer instrument, enclosing at 5% BSA for 1 hour at room temperature, and then PVDF membranes were cut into strips of appropriate size and incubated with prepared antibody dilutions overnight at 4° C. and washed 6 times with TBST, followed by imaging with goat anti-mouse secondary antibody and sheep anti-rabbit secondary antibody for 1 hour at room temperature, and the membrane was washed 6 times with TBST for imaging in the Biorad ChemiDoc™ MP Imaging System.
The inhibitory effect of compounds on ERK phosphorylation levels in TT cells at different concentrations was determined by detecting protein bands.
For orientation: In western blotting, separated proteins are transferred to a membrane and probed.

For another data set, the system named is TT xenograft tumor. Put plainly: Subcutaneous xenograft tumor model of human thyroid cancer cell TT. Format: in vivo, BALB/c nude mice. The conditions noted are these: for Tumor inhibition rate TGI d 22 / Tumor volume (mm^3, mean ± SEM) d 22: oral BID 21 days; for Tumor volume (mm^3, mean ± SEM) d 0: oral BID. As for the experimental part: TT cells were cultured in vitro in a monolayer under the following conditions: F-12K medium with 20% heat-inactivated fetal bovine serum and 1% penicillin-streptomycin double antibodies at 37° C. and 5% CO2. Trypsin-EDTA was used twice a week digestion for digestion treatment passaging. When cells were in an exponential growth period, cells were collected, counted and inoculated.
TT cells were collected when they were full in a logarithmic growth period, ensuring over 90% of vitality. 0.2 mL cell suspension containing about 1×10^7 of TT cells (cells suspended in basic F-12K medium and added with 50% Matrigel) was subcutaneously inoculated into the right back tumor of each mouse […].
• 1. The day of grouping was day 0 (DO). The interval of BID administration was 6-8 h/18-16 h. The first dose was given in the afternoon of day DO and the last dose was given in the morning of day D21. • 2. Dosing volume: […] according to the body weight of nude mice.
Animal grouping: Before administration, the animals were weighed and the tumor volume was measured. The mice were randomly grouped according to tumor volume (randomized grouping design) with 5 animals per group.
Experimental index: The diameter of tumor was measured by vernier caliper twice a week. The tumor volume was calculated by the formula: V=a×b^2/2, a and b denote the long and short diameter of the tumor, respectively. The tumor suppressive efficacy of the compounds was evaluated by TGI (%). TGI (%)=(1−(TVTreatment/Dx−TVTreatment/D1)/(TVControl/Dx−TVControl/D1))×[…].
T test was used for comparison between two groups. One-way ANOVA was used for comparison among three or more groups. If there were significant differences in F values, multiple comparisons should be made after ANOVA analysis. GraphPadPrism 5.0 was used for all data analysis.
For orientation: Xenograft models place foreign cells or tissue in a host animal.

Data set [2] has as its system TT cells (MTC, RET C634W). Description: TT cell proliferation (CellTiter-Glo). Type of data set: cell-based, human. As for the experimental part: When TT cells were cultured to the appropriate fusion level, TT cells were collected, and the cells were adjusted to the appropriate cell concentration using complete medium, and the cell suspension was spread in a 96-well plate, 90 µL per well, and placed in a 37° C., 5% CO2 incubator overnight; and compound solutions of different concentrations were prepared using DMSO and culture medium; and a solvent control was set, the compound solution was added to a 96-well plate, 10 µL per well, at 37° C. in a 5% CO2 incubator for 72 hours; CellTiter-Glo solution was added thereto and the mixture was mixed well by shaking, incubated for 10 min in the dark, and read by BioTek Synergy H1 microplate reader.
The luminescence signal values were used to calculate the inhibition rate, the concentration and the inhibition rate were fitted to a nonlinear regression curve using Graphpad Prism software.

The nature of data set [3]: Balb/C mouse pharmacokinetics, oral. Type of data set: in vivo. The conditions noted are these: Balb/C mice, p.o., 5 mg/kg, plasma. As for the experimental part:
The pharmacokinetic behavior of the following compound embodiments, administered orally at a dose of 5 mg/kg in plasma in mice, was studied using Balb/C mice as test animals.
Balb/C Mouse 6/embodiment, male, Shanghai Jiesijie Laboratory Animal Co., Ltd, Animal Production License No. (SCXK (Shanghai) 2013-0006 N0.311620400001794).
Balb/C mice, males; p.o. after overnight fasting, respectively, at a dose of 5 mg/kg, administered in a volume of 10 mL/kg.
0.5% CMC-Na(1% Tween80) was dissolved by ultrasound, and prepared into clear solution or uniform suspension.
Before and after administration, 0.1 mL of blood was collected from mice at 0, 0.5, 1, 2, 4, 6, 8 and 24 hours by orbital collection, placed in EDTA-K2 tubes, centrifuged at 6000 rpm at 4° C. for 6 min to separate plasma, and stored at −80° C.
40 μL of plasma sample was precipitated by adding 160 μL of acetonitrile, mixed and centrifuged at 3500×g for 5-20 min.
100 μL of the supernatant solution after treatment was taken to analyze the concentration of the test compound by LC/MS/MS.
The main pharmacokinetic parameters were calculated using WinNonlin 6.1 and the results of the mouse pharmacokinetic experiments were shown in Table 8 below.

Usually IC50 stands for the midpoint of a concentration-inhibition curve.

T1 sequence (P07949 29-1114): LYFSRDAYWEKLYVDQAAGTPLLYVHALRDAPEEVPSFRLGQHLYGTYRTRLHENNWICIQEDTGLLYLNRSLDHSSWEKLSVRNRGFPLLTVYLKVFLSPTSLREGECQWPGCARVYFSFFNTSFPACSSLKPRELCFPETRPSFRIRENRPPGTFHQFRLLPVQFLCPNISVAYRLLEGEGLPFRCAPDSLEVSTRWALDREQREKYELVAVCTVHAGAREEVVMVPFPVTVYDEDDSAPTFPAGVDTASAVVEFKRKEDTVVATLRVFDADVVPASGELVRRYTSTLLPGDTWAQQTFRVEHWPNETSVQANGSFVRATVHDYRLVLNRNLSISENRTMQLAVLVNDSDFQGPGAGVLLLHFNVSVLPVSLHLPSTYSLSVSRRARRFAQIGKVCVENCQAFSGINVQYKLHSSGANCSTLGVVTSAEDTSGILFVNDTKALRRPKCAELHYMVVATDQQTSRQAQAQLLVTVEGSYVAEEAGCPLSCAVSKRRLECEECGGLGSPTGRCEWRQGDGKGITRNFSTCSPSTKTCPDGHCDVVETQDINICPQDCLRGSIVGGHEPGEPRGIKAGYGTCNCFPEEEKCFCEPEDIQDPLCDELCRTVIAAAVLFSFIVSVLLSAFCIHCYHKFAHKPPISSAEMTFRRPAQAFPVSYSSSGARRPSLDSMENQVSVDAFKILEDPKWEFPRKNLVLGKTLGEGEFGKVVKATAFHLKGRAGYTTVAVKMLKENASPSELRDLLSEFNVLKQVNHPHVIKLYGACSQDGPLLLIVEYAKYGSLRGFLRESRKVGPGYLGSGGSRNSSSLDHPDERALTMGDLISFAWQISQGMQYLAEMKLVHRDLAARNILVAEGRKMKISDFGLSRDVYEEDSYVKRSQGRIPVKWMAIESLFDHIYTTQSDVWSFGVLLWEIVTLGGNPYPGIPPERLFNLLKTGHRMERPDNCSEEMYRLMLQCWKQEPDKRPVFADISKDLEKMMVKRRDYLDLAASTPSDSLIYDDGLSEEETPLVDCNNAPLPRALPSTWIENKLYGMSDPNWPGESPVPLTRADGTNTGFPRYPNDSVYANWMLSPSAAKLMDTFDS
T2 sequence (P35968 20-1356): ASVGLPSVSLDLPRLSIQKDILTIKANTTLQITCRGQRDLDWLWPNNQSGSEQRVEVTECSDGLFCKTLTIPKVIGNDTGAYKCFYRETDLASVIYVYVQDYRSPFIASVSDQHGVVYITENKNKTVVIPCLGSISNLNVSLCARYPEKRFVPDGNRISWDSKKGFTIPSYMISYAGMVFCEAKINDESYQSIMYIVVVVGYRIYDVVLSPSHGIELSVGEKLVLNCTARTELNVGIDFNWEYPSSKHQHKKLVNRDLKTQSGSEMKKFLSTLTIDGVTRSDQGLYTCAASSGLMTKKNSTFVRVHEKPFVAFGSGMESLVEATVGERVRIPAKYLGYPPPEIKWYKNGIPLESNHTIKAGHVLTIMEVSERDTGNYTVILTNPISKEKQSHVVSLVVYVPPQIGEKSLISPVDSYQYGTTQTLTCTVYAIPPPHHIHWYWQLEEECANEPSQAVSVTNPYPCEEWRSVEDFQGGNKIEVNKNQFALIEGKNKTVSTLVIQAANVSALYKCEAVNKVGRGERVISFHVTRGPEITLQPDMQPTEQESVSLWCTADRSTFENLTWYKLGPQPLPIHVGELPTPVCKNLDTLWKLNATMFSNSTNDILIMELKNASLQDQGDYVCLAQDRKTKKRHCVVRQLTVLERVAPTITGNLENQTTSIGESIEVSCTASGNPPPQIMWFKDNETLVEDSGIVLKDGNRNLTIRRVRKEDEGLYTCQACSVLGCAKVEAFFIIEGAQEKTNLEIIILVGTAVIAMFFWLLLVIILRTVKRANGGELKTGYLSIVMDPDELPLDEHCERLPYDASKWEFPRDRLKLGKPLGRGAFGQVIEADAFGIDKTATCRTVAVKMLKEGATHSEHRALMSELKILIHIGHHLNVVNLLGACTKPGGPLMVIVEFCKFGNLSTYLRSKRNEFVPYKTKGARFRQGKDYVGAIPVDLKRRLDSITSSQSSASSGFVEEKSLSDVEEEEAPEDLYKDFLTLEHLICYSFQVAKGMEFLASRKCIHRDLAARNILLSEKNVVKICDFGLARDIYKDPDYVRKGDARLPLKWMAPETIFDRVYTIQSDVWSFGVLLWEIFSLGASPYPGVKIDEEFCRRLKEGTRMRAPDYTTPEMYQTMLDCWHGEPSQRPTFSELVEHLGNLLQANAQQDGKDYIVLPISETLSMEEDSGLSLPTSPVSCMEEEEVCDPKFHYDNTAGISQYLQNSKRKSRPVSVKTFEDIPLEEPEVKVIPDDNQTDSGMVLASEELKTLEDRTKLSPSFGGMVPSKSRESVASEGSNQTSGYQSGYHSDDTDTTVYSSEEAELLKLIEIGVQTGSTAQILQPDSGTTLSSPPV

On to “6-((1-Imino-1-hydroxy-1l6-thietan-3-yl)methoxy)-4-(6-(6-((6-methoxypyridin-3-yl)methyl)-3,6-diazabicyclo[3.1.1]heptan-3-yl)pyridin-3-yl)pyrazolo[1,5-a]pyridine-3-carbonitrile [Embodiment 85]”, for which the concentration for half-maximal inhibition (IC50) at RET is 1.3 nM. Also, at KDR kinase, the IC50 turned out to be 69 nM and the “Ratio (KDR/RET)” value was determined as 55.

`Cc1ccc(F)cc1C(=O)NC1(C)CC2CN(c3ccc(-c4cc(OCC(C)(C)O)cn5ncc(C#N)c45)cn3)CC2C1` (centres unmarked) [Embodiment 75, N-(2-(5-(3-cyano-6-(2-hydroxy-2-methylpropoxy)pyrazolo[1,5-a]pyridin-4-yl)pyridin-2-yl)-5-methyloctahydrocyclopenta[c]pyrrol-5-yl)-5-fluoro-2-methylbenzamide] had an IC50 at RET of 3.6 nM. On KDR kinase, inhibition was half-maximal at 124 nM (IC50) and the “Ratio (KDR/RET)” value came to 35.

In the case of `C#C[C@](C)(O)COc1cc(-c2ccc(N3CC4CC(C3)N4Cc3ccc(OC)nc3)nc2)c2c(C#N)cnn2c1` [Embodiment 153, 6-(((S)-2-hydroxy-2-methylbut-3-yn-1-yl)oxy)-4-(6-(6-((6-methoxypyridin-3-yl)methyl)-3,6-diazabicyclo[3.1.1]heptan-3-yl)pyridin-3-yl)pyrazolo[1,5-a]pyridine-3-carbonitrile], in data set [1] (11.1 nM, 2 hours at 37° C., TT cells), the “inhibition of ERK phosphorylation” value is “inhibit half of the ERK phosphorylation level”. Moreover, the “inhibition of the phosphorylation level of ERK in TT cells, overall” value in data set [1] (3.7-300 nM, 2 hours) is “significantly inhibit”.

For the molecule `COc1ncc(CN2C3CC2CN(c2ccc(-c4cc(C#CC(C)(C)O)cn5ncc(C#N)c45)cn2)C3)cc1F` [Embodiment 94, 4-(6-(6-((5-Fluoro-6-methoxypyridin-3-yl)methyl)-3,6-diazabicyclo[3.1.1]heptan-3-yl)pyridin-3-yl)-6-(3-hydroxy-3-methylbut-1-yn-1-yl)pyrazolo[1,5-a]pyridine-3-carbonitrile], in the data set with TT xenograft tumor (30 mg/kg), the “Tumor inhibition rate TGI d 22” value was 99.64%; the “Tumor volume (mm^3, mean ± SEM) d 22” value was found to be 203.56 ± 31.74 mm^3; the “Tumor volume (mm^3, mean ± SEM) d 0” value is given as 199.73 ± 24.07 mm^3.

With `COc1ccc(CN2C3CC2CN(c2ccc(-c4cc(/C=C/C(C)(C)O)cn5ncc(C#N)c45)cn2)C3)cn1` [Embodiment 127], the IC50 against RET came to 0.26 nM; against KDR kinase, 6.5 nM; in data set [2] (Homo sapiens, TT, 72 h), 5.87 nM. Moreover, at KDR kinase, the “Ratio (KDR/RET)” value worked out at 25.

Consider `COc1ccc(CN2C3CC2CN(c2ccc(-c4cc(OCC(C)(C)C#N)cn5ncc(C#N)c45)cn2)C3)cn1` [Embodiment 34, 6-(2-Cyano-2-methylpropoxy)-4-(6-(6-((6-methoxypyridin-3-yl)methyl)-3,6-diazabicyclo[3.1.1]heptan-3-yl)pyridin-3-yl)pyrazolo[1,5-a]pyridine-3-carbonitrile], for which, in data set [3], the “Half-life t1/2” value worked out at 4.2 h.

In turn, `CC(C)(O)COc1cc(-c2ccc(N3CCC(N)(C(=O)N4CCc5ccccc54)CC3)nc2)c2c(C#N)cnn2c1` [Embodiment 62, 4-(6-(4-Amino-4-(indoline-1-carbonyl)piperidin-1-yl)pyridin-3-yl)-6-(2-hydroxy-2-methylpropoxy)pyrazolo[1,5-a]pyridine-3-carbonitrile] had an IC50 on RET of 1.3 nM. Moreover, on KDR kinase, the IC50 was 17 nM and the “Ratio (KDR/RET)” value is 14.

`COc1ccc(CN2C3CC2CN(c2ccc(-c4cc(N5CC(C)(C#N)C5)cn5ncc(C#N)c45)cn2)C3)cn1` [Embodiment 168, 6-(3-Cyano-3-methylazetidin-1-yl)-4-(6-(6-((6-methoxypyridin-3-yl)methyl)-3,6-diazabicyclo[3.1.1]heptan-3-yl)pyridin-3-yl)pyrazolo[1,5-a]pyridine-3-carbonitrile]: in the data set with TT xenograft tumor (10 mg/kg), the “Tumor inhibition rate TGI d 22” value amounted to 129.77%; the “Tumor volume (mm^3, mean ± SEM) d 22” value was 144.14 ± 8.95 mm^3; the “Tumor volume (mm^3, mean ± SEM) d 0” value is 205.23 ± 16.57 mm^3.

With `COc1ccc(CN2C3CC2CN(c2ccc(-c4cc(OCC56CC(C#N)(C5)C6)cn5ncc(C#N)c45)cn2)C3)cn1` [Embodiment 138, 6-((3-Cyanobicyclo[1.1.1]pentan-1-yl)methoxy)-4-(6-(6-((6-methoxypyridin-3-yl)methyl)-3,6-diazabicyclo[3.1.1]heptan-3-yl)pyridin-3-yl)pyrazolo[1,5-a]pyridine-3-carbonitrile], in data set [2] (72 hours), the concentration for half-maximal inhibition (IC50) was 25.1 nM.

For `COc1ccc(OC2CCN(c3ccc(-c4cc(C#CC(C)(C)O)cn5ncc(C#N)c45)cn3)CC2)cn1` [Embodiment 32, 6-(3-Hydroxy-3-methylbut-1-yn-1-yl)-4-(6-(4-((6-methoxypyridin-3-yl)oxo)piperidin-1-yl)pyridin-3-yl)pyrazolo[1,5-a]pyridine-3-carbonitrile], the IC50 at RET came out at 1.22 nM; against KDR kinase, 1.6 nM. The “Ratio (KDR/RET)” value at KDR kinase was 1.3.
